Measured values as given in paper PMC4436063 (mBio, 2015).

Target: CheS3
Assay: microscale thermophoresis
Type: binding, Rhodospirillum centenum
Conditions: fluorescently labelled CheS3 (Blue-NHS, 100 nM); non-hydrolysable ATP analogue

Nc1ncnc2c1ncn2[C@@H]1O[C@H](COP(=O)(O)OP(=O)(O)OP(O)(O)=S)[C@@H](O)[C@H]1O [ATPγS]
Kd: 112 nM
